Counter-ions that a name gives are not always drawn. Like-named read-outs stand apart in the source and are kept apart here.
Columns and labels:
[1] = cited from earlier work
[2] = oxygen radical absorbance capacity (ORAC) assay; format: biochemical; conditions: isolated and reference compounds
Description: ORAC assay was carried out according to the method of Ou, G. and colleagues (1993) with some modifications. Trolox and FL were used as a standard and a fluorescent probe respectively. Free radicals were produced by AAPH to oxidize FL. Different dilutions of Trolox ([…]) and appropriate dilutions of tested sample were prepared with phosphate buffer (10 mM, pH 7.4). Trolox dilution ([…]) or sample solution were pipetted into a well of 96-well black microplate (VWR) and then FL (150 mL, 10 nM) was added. The reaction mixture was incubated at 37° C. for 30 min Afterward s, fluorescence was measured every 90 sec at the excitation of 485 nm and the emission of 520 nm using FLUOstar OPTIMA. After 3 cycles, AAPH ([…], 240 mM) was added quickly, and then the measurement was resumed and continued up to 90 min (60 cycles in total). The background signal was determined using the first 3 cycles. The ORAC values were calculated according to the method of Ou, G. and colleagues (1993) and expressed as Trolox equivalent (mmol TE/mmol). After freeze-drying in triplicate, MPLC fractions M1-M8 were analyzed in natural concentrations.

[3] = hydrogen peroxide scavenging assay; format: biochemical; conditions: isolated and reference compounds; read-out: H2O2 assay EC50
Description: Hydrogen peroxide scavenging assay was performed in accordance with the method of Ichikawa, M. and colleagues (2002). Sample solutions at appropriate concentration were prepared using phosphate buffer (100 mM, pH 6.0). Sample solution ([…]), phosphate buffer (30 mL, 100 mM, pH 6.0), and hydrogen peroxide solution (10 mL, 500 mM) were mixed in 96-well clear microplate (VWR, Ismaning, Germany). Then peroxidase (40 mL, 150 U/mL) and ABTS (40 mL, 0.1%) were added. The microplate was incubated at 37° C. for 15 min. The absorbance (A) of each well was measured at 414 nm with FLUOstar OPTIMA (BMG LABTECH, Offenburg, Germany). […] After freeze-drying three times 1 MPLC fractions M1-M8 were analyzed in natural concentrations.
E=[(A−Ablank)control−(A−Ablank)test]/(A−Ablank)control·100

[4] = tested on: guinea pig colon circular smooth muscle cells (CSMC); assay: intracellular recording of slow wave action potentials, colon circular smooth muscle; conditions: extract 0.5 g stem bark powder/100 ml Krebs; manniflavanone 41.0 mg/100 mL Krebs
Description: (§1) Calcium imaging and standard intracellular microelectrode recording were used to determine the effect of G. buchananii extract on the discharge and frequency of Ca^2+ transients, Ca^2+ flashes and Ca^2+ waves. Six fractions (M1-M5 and M7) collected using medium pressure liquid chromatography and manniflavanone, a pure compound from M3 were analyzed for the effect on the resting membrane potential and action potentials in intact GBSM preparations, and slow wave action potentials in CSMC in guinea pig and porcine colon.

[5] = tested on: guinea pig gallbladder smooth muscle cells (GBSM); assay: intracellular microelectrode recording of action potentials, gallbladder smooth muscle; conditions: extract 0.5 g stem bark powder/100 ml; manniflavanone 41.0 mg/100 mL Krebs
Description: as §1

guinea pig distal colon = assay: fecal pellet propulsion motility assay in isolated distal colon (GIMM); conditions: MPLC fractions and their main compounds, serosal application in Krebs
Description: Gastrointestinal Motility Assays: Segments (˜10 cm long) of distal colon were pinned on either end in a Sylgard-lined 50 mL organ bath, continuously perfused with oxygenated Krebs solution (rate: 10 mL min^−1) and maintained at temperatures between 36 and 37° C. Tissues were initially allowed to equilibrate for 30 mins in re-circulating Krebs solution. Colonic motility was studied using the Gastronintestinal Motility Monitoring system (GIMM; Med-Associates Inc., Saint Albans, Vt., USA), which included a digital video camera (Catamount Research and Development Inc, St Albans, Vt., USA) to film fecal pellet propulsion. Trials were separated by 5-min recovery periods between successive pellet runs. The GIMM system software calculated velocities by tracking pellets as they traversed colon segments. After initial equilibration, five pellet propulsion trials in vehicle solution were obtained to determine the basal velocity for each tissue preparation. To reduce variations between runs and experiments, the values obtained were used to generate a normalized basal velocity by dividing the values of the 4th-5th runs by the value of the 1st-2nd runs. Garcinia buchananii stem bark extract and test compounds dissolved in 100 mL of Krebs solution were superfused either into the organ bath or into the lumen of the colon using polyethylene tubing [PE 205; outside diameter 9.5 mm (BD-Worldwide, Sparks, Md., USA)]. The effects of extract and test compounds were evaluated by obtaining velocities of four trials taken at 5-min intervals (5-20 min) Normalized velocity data for these treatments were obtained by dividing the test velocities acquired by the average velocity of the five pellet propulsion runs performed in vehicle solution (runs 1-5, above). Normalized data became ratios without units, and were presented as a percent velocity of basal activity for each tissue. Velocities of pellet propulsion were also studied during washout of tissue with Krebs solution (after extract or test compound application) for 20 min
A segment (˜10-12 cm long) of distal colon was pinned on either end in a Sylgard-lined 50 mL organ bath being continuously perfused with oxygenated Krebs solution (rate: 10 mL min^−1) and maintained at temperatures between 36-37° C. Nail-polish-coated guinea-pig pellets similar in shape and size to the “native” colonic fecal pellets were used to determine propulsive velocities using the Gastrointestinal Motility Monitoring system (Med-Associates Inc., Saint Albans, Vt., USA) for filming pellet propulsion as described by Hoffman and others (2010). Velocity was calculated based on the time required for pellets to traverse 5-6 cm of the central colon segment ending 1 cm from the aboral end. Data collection started after 30 minutes of equilibration. A five-minute interval was used to allow equilibration of motor activity between successive pellet runs. Baseline velocities were measured for 20 minutes.
In intraluminal studies, the aqueous extract was prepared by suspending 2 g of G. buchananii bark powder in 100 mL Krebs, whereas 1 g G. buchananii bark powder prepared in the same manner was used for bath (serosal) applications. The extract-Krebs mixture was continuously stirred for 30 minutes and filtered using analytical filter paper (Schleicher and Schuell Blue Ribbon filter paper 589/3; 0.2 μm retention). Garcinia buchananii extract and test compounds were delivered to isolated colons in Krebs solution, and evaluated for effects on pellet propulsion during 20-25 minute time intervals. Intraluminal drug deliveries (350 μL min^−1 Krebs solution) were performed using polyethylene tubing (PE 205; outside diameter 9.5 mm) inserted ˜1.5 cm into the oral end of the segments. In bath deliveries, G. buchananii extract and test compounds were superfused directly into the organ bath. Studies involving PTLC fractions were performed using the organ bath delivery method only.

[6] = tested on: S-neurons in the myenteric ganglia of guinea pig distal colon; assay: intracellular recording of evoked fast excitatory postsynaptic potentials (fEPSPs); conditions: naloxone 10 μmol/L; yohimbine 1 μmol/L
Description: Intracellular Recording: To study fast excitatory postsynaptic potentials, longitudinal muscle-myenteric plexus preparations of guinea pig colon were pinned and stretched in a 2.5 mL Sylgard-lined recording chamber. […] Myenteric ganglia were visualized at ×200 using Hoffman modulation contrast optics on an inverted microscope (Nikon Diaphot, […]., USA). Individual neurons were randomly impaled using glass microelectrodes, which were filled to the shoulder with 1.0 mol L^-1 KCl and topped off with 2.0 mol L^-1 KCl, generating a range of 50-150 MΩ input resistance. Membrane potential was measured with an Axoclamp-2A amplifier (Axon Instruments, Union City, Calif., USA) and the electrical signals were acquired and analyzed using PowerLab Chart version 5.01 (ADlnstruments, Castle Hills, Australia). Input resistance and resting membrane potential were determined for neurons before and after exposure to G. buchananii extract. Using monopolar extracellular electrodes made from Teflon®-insulated platinum wire, synaptic input to myenteric neurons was elicited by direct single pulse stimuli (0.5 ms duration) applied to interganglionic fiber tracts. […] The amplitude was measured by taking the difference in voltage between the peak of each fEPSP and the membrane holding potential. […]

[7] = Values from Wolfe and Liu (stereochemistry of naringenin and taxifolin not stated)

| SMILES | ORAC assay [2] [μmol TE/μmol] | EC50 [3] [µM] | further results |
| --- | --- | --- | --- |
| Oc1cc(O)c2c(c1)O[C@H](c1ccc(O)c(O)c1)[C@H](O)C2 [(−)-epicatechin] | 9.65 | 4.1 | ORAC, Literature [1, 7]: 9.14^6 μmol TE/μmol |
| O=C1c2c(cc(O)c([C@@H]3O[C@H](CO)[C@@H](O)[C@H](O)[C@H]3O)c2O)O[C@H](c2ccc(O)c(O)c2)[C@H]1O [Compound 1, (2R,3R)-Taxifolin-6-C-β-D-glucopyranoside] | 9.57 | 11 | – |
| O=C1c2c(cc(O)c([C@@H]3OC(CO)[C@@H](O)[C@H](O)C3O)c2O)O[C@H](c2ccc(O)cc2)[C@H]1O (stereo partly drawn) [Compound 2, (2R,3R)-Aromadendrin-6-C-β-D-glucopyranoside] | 4.23 | 10.9 | – |
| O=C1c2c(O)cc(O)c([C@@H]3C(=O)c4c(O)cc(O)cc4O[C@H]3c3ccc(O)c(O)c3)c2O[C@H](c2ccc(O)c(O)c2)[C@H]1O [Compound 3, (2R,3S,2″R,3″R)-manniflavanone] | 13.73 | 2.8 | slow wave action potentials (SW) in CSMC [4]: inhibits spikes of SW; action potentials in GBSM [5]: inhibits action potentials |
| O=C1c2c(O)cc(O)c([C@@H]3C(=O)c4c(O)cc(O)cc4O[C@H]3c3ccc(O)cc3)c2O[C@H](c2ccc(O)c(O)c2)[C@H]1O [Compound 4, (2R,3S,2″R,3″R)-GB-2] | 12.10 | 2.2 | effect on pellet propulsion velocity (guinea pig distal colon): inhibits guinea pig colon propulsive motility |
| O=C1C[C@@H](c2ccc(O)c(O)c2)Oc2c1c(O)cc(O)c2[C@@H]1C(=O)c2c(O)cc(O)cc2O[C@H]1c1ccc(O)c(O)c1 [Compound 5, (2R,3S,2″S)-2-(3,4-dihydroxyphenyl)-2,2′,3,3′-tetrahydro-5,5,7,7-tetrahydroxy-2′-(3,4-dihydroxyphenyl)-[3,8′-Bi-4H-1-benzopyran]-4,4′-dione] | 10.50 | 14.4 | effect on pellet propulsion velocity (guinea pig distal colon): inhibits guinea pig colon propulsive motility |
| O=C1c2c(O)cc(O)cc2O[C@H](c2ccc(O)c(O)c2)[C@H]1O [Compound 6, (+)-(2R,3R)-Taxifolin] | 7.63 | 11.3 | – |
| O=C1O[C@H]([C@@H](O)CO)C(O)=C1O [ascorbic acid] | 0.34 | 18.5 | – |
| C=CCN1CC[C@]23c4c5ccc(O)c4O[C@H]2C(=O)CC[C@@]3(O)[C@H]1C5 [naloxone, naloxone hydrochloride] | – | – | effect of antagonist alone on fEPSPs [6]: had no effect on fEPSPs |
| O=c1c(O)c(-c2ccc(O)c(O)c2)oc2cc(O)cc(O)c12 [quercetin] | 5.61 | 6.1 | ORAC, Literature ([1]; Values from Ou et al.): 7.28 μmol TE/μmol; ORAC, Literature [1, 7]: 8.04 μmol TE/μmol |
| COC(=O)[C@@H]1[C@H]2C[C@H]3c4[nH]c5ccccc5c4CCN3C[C@@H]2CC[C@@H]1O [yohimbine, yohimbine hydrochloride] | – | – | effect of antagonist alone on fEPSPs [6]: had no effect on fEPSPs |
